Results published in ChEMBL document CHEMBL4834472 (J Med Chem, 2021).
Active and inactive are the calls of the source. No cut-off for these calls is given here.

How the values were obtained:
CDK2/Cyclin A1 = CDK2/Cyclin A1 (Homo sapiens, UniProt P24941); assay type: protein-complex assay
Description: Inhibition of CDK2/Cyclin A1 (unknown origin) at 1 uM using histone H1 as substrate preincubated for 20 mins followed by 33P-ATP addition and measured after 2 hrs by filter binding method

[1] = molecular target: T1, Receptor-type tyrosine-protein kinase FLT3 (Homo sapiens, UniProt P36888, ITD)
[2] = molecular target: Cyclin-dependent kinase 1/cyclin B1 (Homo sapiens, UniProt P06493); assay: Inhibition of CDK1/cyclin B1 (unknown origin) in presence of [32P]gammaATP by image analyser; assay type: protein-complex assay
Sequence of Cyclin-dependent kinase 1/cyclin B1 (P06493 whole entry): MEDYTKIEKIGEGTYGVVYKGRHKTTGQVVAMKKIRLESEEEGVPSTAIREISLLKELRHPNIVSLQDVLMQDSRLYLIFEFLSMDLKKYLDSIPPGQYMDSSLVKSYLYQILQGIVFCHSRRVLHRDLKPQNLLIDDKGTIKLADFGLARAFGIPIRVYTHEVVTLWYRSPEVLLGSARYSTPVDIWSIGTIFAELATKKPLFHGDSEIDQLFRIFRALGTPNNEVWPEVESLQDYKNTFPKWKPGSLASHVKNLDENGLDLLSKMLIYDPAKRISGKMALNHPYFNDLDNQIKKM
Sequence of Cyclin-dependent kinase 1/cyclin B1 (P14635 whole entry, further chain): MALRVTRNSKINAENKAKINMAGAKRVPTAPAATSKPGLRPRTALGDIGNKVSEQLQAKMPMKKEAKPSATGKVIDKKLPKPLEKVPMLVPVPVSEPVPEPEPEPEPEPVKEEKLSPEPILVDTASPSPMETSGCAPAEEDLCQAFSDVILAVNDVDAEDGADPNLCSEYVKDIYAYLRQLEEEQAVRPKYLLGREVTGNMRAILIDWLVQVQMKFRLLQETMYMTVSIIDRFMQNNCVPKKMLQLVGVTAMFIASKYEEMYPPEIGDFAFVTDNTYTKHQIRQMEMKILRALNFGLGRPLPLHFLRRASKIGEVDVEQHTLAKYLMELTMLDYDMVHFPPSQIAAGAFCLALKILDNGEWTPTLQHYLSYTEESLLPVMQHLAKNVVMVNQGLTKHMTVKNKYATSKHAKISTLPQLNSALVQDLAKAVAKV

[3] = molecular target: Cyclin-dependent kinase 2/cyclin E1 (Homo sapiens, UniProt P24941); assay: Inhibition of CDK2/cyclin E1 (unknown origin) in presence of [32P]gammaATP by image analyser; assay type: protein-complex assay
[4] = molecular target: Cyclin-dependent kinase 4/cyclin D1 (Homo sapiens, UniProt P11802); assay: Inhibition of CDK4/cyclin D1 (unknown origin) in presence of [32P]gammaATP by image analyser; assay type: protein-complex assay
Sequence of Cyclin-dependent kinase 4/cyclin D1 (P11802 whole entry): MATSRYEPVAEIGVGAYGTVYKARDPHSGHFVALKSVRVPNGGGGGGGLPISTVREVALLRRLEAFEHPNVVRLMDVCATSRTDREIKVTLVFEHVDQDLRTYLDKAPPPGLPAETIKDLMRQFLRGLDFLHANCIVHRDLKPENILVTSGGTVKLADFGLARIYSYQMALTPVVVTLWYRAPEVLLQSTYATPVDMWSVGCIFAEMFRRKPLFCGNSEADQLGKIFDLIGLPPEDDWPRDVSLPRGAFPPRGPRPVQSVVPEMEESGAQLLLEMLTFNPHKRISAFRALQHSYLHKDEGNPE
Sequence of Cyclin-dependent kinase 4/cyclin D1 (P24385 whole entry, further chain): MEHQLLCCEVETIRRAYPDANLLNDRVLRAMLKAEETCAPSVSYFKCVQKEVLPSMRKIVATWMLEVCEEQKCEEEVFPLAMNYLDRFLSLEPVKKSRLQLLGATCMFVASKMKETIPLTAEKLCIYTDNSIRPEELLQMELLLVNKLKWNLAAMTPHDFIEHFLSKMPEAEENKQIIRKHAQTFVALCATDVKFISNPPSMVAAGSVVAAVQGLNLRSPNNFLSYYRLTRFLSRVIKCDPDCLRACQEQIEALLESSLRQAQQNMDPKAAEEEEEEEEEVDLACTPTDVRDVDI

CDK9/cyclin T1 = CDK9/cyclin T1 (Homo sapiens, UniProt P50750); assay: Inhibition of CDK9/cyclin T1 (unknown origin) in presence of [32P]gammaATP by image analyser; assay type: protein-complex assay
Sequence of CDK9/cyclin T1 (O60563 whole entry): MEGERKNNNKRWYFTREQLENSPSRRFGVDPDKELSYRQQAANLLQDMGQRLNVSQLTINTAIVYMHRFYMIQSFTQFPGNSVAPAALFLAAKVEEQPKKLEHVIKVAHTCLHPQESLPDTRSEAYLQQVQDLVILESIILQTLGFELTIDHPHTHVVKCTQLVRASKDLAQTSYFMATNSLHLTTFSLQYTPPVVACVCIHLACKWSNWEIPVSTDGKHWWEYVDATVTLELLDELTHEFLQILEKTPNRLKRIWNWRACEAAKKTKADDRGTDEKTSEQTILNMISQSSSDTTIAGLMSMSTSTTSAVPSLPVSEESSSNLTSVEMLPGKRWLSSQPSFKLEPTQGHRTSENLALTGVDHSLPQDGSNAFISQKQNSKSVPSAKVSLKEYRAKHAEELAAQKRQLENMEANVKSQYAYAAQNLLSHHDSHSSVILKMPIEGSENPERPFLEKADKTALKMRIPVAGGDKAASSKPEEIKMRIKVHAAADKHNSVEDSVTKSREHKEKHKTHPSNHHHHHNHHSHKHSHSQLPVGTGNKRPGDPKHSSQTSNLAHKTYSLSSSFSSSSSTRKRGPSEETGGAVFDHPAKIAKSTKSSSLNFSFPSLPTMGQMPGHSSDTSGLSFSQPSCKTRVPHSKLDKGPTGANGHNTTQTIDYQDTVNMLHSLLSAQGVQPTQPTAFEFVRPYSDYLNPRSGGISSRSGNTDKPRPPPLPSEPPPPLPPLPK
Sequence of CDK9/cyclin T1 (P50750 whole entry): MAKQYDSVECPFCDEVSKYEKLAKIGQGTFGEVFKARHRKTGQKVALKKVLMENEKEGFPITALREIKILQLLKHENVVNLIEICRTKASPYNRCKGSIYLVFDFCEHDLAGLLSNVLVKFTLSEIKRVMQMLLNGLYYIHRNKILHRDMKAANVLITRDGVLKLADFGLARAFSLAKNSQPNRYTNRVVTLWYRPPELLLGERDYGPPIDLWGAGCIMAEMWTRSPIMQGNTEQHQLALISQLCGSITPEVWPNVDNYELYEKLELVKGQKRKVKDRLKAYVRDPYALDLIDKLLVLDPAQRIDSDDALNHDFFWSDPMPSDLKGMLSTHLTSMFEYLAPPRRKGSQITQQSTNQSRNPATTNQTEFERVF

[5] = molecular target: T2, Receptor-type tyrosine-protein kinase FLT3 (Homo sapiens, UniProt P36888); assay: Inhibition of wild type FLT3 (unknown origin) using AGLT peptide substrate in presence of [32P]gammaATP by image analyser
T2 sequence (P36888 whole entry): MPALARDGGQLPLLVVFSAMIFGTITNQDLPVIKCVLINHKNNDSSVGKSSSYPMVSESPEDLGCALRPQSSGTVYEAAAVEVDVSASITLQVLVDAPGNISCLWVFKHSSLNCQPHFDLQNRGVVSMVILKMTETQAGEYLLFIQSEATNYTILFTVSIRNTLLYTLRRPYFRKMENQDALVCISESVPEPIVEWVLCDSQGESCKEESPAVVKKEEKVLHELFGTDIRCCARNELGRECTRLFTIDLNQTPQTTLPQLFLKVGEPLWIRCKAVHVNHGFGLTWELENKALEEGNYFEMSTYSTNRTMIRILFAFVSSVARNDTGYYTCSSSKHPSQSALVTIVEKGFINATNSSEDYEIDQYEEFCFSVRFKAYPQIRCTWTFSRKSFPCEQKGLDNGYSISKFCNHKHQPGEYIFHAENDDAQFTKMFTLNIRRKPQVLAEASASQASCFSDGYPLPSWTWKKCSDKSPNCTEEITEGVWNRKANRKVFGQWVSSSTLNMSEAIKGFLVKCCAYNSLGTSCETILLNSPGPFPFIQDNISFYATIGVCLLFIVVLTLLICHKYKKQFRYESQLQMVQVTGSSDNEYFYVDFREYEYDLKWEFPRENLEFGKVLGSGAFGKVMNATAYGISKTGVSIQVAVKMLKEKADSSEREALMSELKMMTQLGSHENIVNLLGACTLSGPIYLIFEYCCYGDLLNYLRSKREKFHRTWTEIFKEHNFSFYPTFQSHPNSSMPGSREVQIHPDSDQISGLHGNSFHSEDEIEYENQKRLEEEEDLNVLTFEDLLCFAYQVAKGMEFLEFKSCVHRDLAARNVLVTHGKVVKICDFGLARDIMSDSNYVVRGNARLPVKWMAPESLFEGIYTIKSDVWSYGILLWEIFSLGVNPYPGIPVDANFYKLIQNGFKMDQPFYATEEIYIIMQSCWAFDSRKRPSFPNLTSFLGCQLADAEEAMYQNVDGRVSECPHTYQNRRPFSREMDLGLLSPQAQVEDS

MOLM-14 [6] = assay: Antiproliferative activity against human MOLM-14 cells assessed as cell death measured after 72 hrs by resazurin dye based assay; assay type: functional; settings: MOLM-14, 72 h
MOLM-14 [7] = assay: Antiproliferative activity against human MOLM-14 cells harboring D835Y mutant assessed as cell death measured after 72 hrs by resazurin dye based assay; assay type: functional; settings: MOLM-14, 72 h
SEM cells = assay: Antiproliferative activity against human SEM cells assessed as cell death measured after 72 hrs by resazurin dye based assay; assay type: functional
CCRF-CEM = assay: Antiproliferative activity against human CCRF-CEM cells assessed as cell death measured after 72 hrs by resazurin dye based assay; assay type: functional
BaF3 [8] = assay: Antiproliferative activity against mouse BaF3 cells assessed as cell death measured after 72 hrs by resazurin dye based assay; assay type: functional; settings: BaF3, 72 h
BaF3 [9] = assay: Antiproliferative activity against mouse BaF3 cells harboring FLt3 ITD mutant assessed as cell death measured after 72 hrs by resazurin dye based assay; assay type: functional; settings: BaF3, 72 h
[10] = tested on: Receptor-type tyrosine-protein kinase FLT3 (Homo sapiens), P36888 [UNDEFINED MUTATION]; assay: Inhibition of FLT3 ITD (unknown origin) assessed as residual activity at 500 nM
[11] = molecular target: Maternal embryonic leucine zipper kinase (Homo sapiens) (UniProt Q14680); assay: Inhibition of MELK (unknown origin) assessed as residual activity at 500 nM
Sequence of Maternal embryonic leucine zipper kinase (Homo sapiens) (Q14680 whole entry, looked up): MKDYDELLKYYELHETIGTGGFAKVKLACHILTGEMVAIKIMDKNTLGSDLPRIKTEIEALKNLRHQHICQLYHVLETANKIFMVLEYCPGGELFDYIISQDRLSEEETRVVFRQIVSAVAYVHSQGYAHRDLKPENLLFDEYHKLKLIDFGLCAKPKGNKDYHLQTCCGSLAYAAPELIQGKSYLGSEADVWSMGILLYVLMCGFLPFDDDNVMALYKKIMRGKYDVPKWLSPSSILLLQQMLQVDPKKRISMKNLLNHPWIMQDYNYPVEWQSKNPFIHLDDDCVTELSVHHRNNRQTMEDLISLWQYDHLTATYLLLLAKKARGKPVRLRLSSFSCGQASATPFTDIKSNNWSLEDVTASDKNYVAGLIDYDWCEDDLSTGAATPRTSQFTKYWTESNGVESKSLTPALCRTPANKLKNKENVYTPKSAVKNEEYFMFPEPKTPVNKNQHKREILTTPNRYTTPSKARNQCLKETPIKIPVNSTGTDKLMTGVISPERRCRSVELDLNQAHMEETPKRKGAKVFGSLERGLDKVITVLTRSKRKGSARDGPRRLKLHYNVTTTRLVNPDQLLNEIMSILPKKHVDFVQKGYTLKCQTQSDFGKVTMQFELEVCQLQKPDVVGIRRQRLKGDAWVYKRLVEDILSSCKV

[12] = molecular target: Dual specificity tyrosine-phosphorylation-regulated kinase 1B (Homo sapiens) (UniProt Q9Y463); assay: Inhibition of DYRK1B (unknown origin) assessed as residual activity at 500 nM
[13] = molecular target: Dual specificity protein kinase CLK1 (Homo sapiens) (UniProt P49759); assay: Inhibition of CLK1 (unknown origin) assessed as residual activity at 500 nM
Sequence of Dual specificity protein kinase CLK1 (Homo sapiens) (P49759 whole entry, looked up): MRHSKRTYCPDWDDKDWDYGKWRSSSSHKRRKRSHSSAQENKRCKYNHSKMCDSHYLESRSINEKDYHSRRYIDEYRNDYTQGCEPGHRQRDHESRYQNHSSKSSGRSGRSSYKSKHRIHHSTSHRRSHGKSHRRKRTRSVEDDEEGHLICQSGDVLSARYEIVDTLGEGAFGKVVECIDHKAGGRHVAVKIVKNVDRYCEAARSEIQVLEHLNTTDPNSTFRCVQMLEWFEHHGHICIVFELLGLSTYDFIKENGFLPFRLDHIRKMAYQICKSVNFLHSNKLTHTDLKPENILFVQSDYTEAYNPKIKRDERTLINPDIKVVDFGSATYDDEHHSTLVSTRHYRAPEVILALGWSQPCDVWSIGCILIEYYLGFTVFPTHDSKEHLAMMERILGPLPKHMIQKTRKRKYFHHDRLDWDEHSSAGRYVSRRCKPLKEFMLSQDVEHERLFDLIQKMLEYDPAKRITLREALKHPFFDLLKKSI

[14] = molecular target: T1, Receptor-type tyrosine-protein kinase FLT3; assay: Binding affinity to human partial length FLT3 ITD mutant expressed in bacterial expression system by KdELECT Discover assay
[15] = molecular target: Receptor-type tyrosine-protein kinase FLT3 (Homo sapiens, UniProt P36888, F691L); assay: Binding affinity to human partial length FLT3 ITD F691L mutant expressed in mammalian expression system by KdELECT Discover assay
Sequence of Receptor-type tyrosine-protein kinase FLT3 (Homo sapiens, UniProt P36888, F691L) (P36888 27-993 F691L limits assumed): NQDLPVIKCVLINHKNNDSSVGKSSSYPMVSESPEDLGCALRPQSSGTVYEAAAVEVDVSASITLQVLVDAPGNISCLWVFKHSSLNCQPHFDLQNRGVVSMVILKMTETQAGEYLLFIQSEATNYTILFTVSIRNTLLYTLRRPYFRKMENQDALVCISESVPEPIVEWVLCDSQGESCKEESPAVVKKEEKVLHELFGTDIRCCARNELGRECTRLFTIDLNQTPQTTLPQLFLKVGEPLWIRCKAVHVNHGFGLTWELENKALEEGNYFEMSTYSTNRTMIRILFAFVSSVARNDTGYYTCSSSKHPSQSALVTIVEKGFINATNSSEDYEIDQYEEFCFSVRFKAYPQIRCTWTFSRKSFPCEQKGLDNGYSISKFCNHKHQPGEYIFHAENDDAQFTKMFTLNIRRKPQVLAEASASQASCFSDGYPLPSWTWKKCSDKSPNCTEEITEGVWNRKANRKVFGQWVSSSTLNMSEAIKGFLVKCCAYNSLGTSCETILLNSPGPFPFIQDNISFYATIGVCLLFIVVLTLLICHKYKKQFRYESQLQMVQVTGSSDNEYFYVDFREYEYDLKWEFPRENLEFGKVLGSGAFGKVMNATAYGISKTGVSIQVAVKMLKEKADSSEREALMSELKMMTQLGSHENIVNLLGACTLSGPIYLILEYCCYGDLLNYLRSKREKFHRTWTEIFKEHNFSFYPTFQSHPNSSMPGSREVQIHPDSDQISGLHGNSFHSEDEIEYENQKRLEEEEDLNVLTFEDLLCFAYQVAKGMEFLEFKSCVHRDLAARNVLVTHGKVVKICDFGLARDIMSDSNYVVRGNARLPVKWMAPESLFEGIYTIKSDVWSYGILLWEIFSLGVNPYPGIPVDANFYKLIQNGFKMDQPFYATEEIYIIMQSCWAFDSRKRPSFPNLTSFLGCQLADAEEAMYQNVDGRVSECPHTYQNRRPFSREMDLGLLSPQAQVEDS

[16] = molecular target: Receptor-type tyrosine-protein kinase FLT3 (Homo sapiens) (UniProt P36888); assay: Inhibition of FLT3 autophosphorylation in human MV4-11 cells at 20 to 100 nM incubated for 1 hrs by Western blot analysis; assay type: cell-based; settings: dose 20-100 nM
[17] = molecular target: Receptor-type tyrosine-protein kinase FLT3 (Homo sapiens) (UniProt P36888); assay: Inhibition of FLT3 in human MV4-11 cells assessed as STAT5 phosphorylation at Y694 at 20 to 100 nM incubated for 1 hrs by Western blot analysis; assay type: cell-based; settings: dose 20-100 nM
[18] = molecular target: Receptor-type tyrosine-protein kinase FLT3 (Homo sapiens) (UniProt P36888); assay: Inhibition of FLT3 in human MV4-11 cells assessed as ERK1/2 phosphorylation at 20 to 100 nM incubated for 1 hrs by Western blot analysis; assay type: cell-based; settings: dose 20-100 nM
MV4-11 [19] = assay: Induction of apoptosis in human MV4-11 cells assessed as effect on Bcl2 level at 100 nM incubated for 24 hrs by Western blot analysis; assay type: functional, cell-based
MV4-11 [20] = assay: Antitumor activity against human MV4-11 cells xenografted in NRG mouse assessed as tumor growth inhibition treated at 50 mg/kg, po via gavage daily for 5 days in a week after 15 days of implantation measured after 21 days by luciferase based relative to control; assay type: functional; settings: MV4-11, po, 504 h, time 21 day
K562 = assay: cells; settings: Homo sapiens, K562, 72 h
Description: Antiproliferative activity against human K562 cells assessed as cell death measured after 72 hrs by resazurin dye based assay

MV4-11 [21] = assay: cells; settings: Homo sapiens, MV4-11, 72 h
Description: Antiproliferative activity against human MV4-11 cells assessed as cell death measured after 72 hrs by resazurin dye based assay

Cc1n[nH]c2ccc3nc(-c4c[nH]nc4C(F)(F)F)c4c(c3c12)CCCC4
IC50 (CDK2/Cyclin A1): 430 nM
IC50 [1]: 6 nM
IC50 [2]: 157 nM
IC50 [3]: 258 nM
IC50 [4]: > 1000 nM
IC50 (CDK9/cyclin T1): > 1000 nM
IC50 [5]: 25 nM
IC50 (MOLM-14 [6]): 26 nM
IC50 (MOLM-14 [7]): 36 nM
IC50 (SEM cells): 422 nM
IC50 (CCRF-CEM): 6510 nM
IC50 (BaF3 [8]): 153000 nM
IC50 (BaF3 [9]): 62 nM
Activity [10]: < 2.5%
Activity [11]: 4%
Activity [12]: 4%
Activity [13]: 4%
Kd [14]: 1.6 nM
Kd [15]: 1.3 nM
inhibition [16]: Active
inhibition [17]: Active
inhibition [18]: inactive
Activity (MV4-11 [19]): Active
inhibition in vivo at 50 mg/kg (MV4-11 [20]): 90%
IC50 (K562): 9820 nM
IC50 (MV4-11 [21]): 70 nM
